# Results from paper PMC8886686 (Journal of Inorganic Biochemistry, 2022).
# Columns and labels:
# 3CLpro^D155A/C156S = 3CLpro^D155A/C156S (Severe acute respiratory syndrome coronavirus 2, UniProt P0DTD1, C3419S/D3418A); type: biochemical, SARS-CoV-2; conditions: read-out: IC50, 3CLpro^D155A/C156S activity
# PLpro^C112S = PLpro^C112S (Severe acute respiratory syndrome coronavirus 2, UniProt P0DTD1, C1674S); type: binding, SARS-CoV-2
structure (smiles),measurement,setting,value
"O=C([O-])[C@H](O)[C@@H](O)[C@H](O)[C@H](O)CO.O=C([O-])[C@H](O)[C@@H](O)[C@H](O)[C@H](O)CO.[Zn+2] [Zn^2+, zinc gluconate]",IC50,3CLpro^D155A/C156S,1540 ± 50 nM
same,Zn2+ binding capacity of PLpro^C112S (ICP-MS),PLpro^C112S,0.71 ± 0.01 eq.
